Laboratory results reported in patent US20230407321A1, “METHOD TO DELIVER CHEMICALS AND NUCLEIC ACIDS TO PLANT CELLS USING CELLULOSE NANOCRYSTALS AS A CARRIER” (BOARD OF TRUSTEES OF THE UNIVERSITY OF ARKANSAS, priority 2022, published 2023).

Key:
[1] = system: N. tabacum callus culture; assay: Tobacco callus growth on MS media with 2,4-D, CNC or CNC-2,4-D conjugate; format: cell-based, Nicotiana tabacum; settings: reduced amount of 2,4-D (0.4 mg/L or equivalent), 35 days in the dark, total fresh weight
Protocol: To understand if CNC can deliver a plant hormone that encourages cell division to plants, CNCs conjugated with 2,4-D were added to MS medium. 2,4-D was selected for conjugation based on the extensive use of this synthetic auxin as both a plant growth regulator commonly employed in tissue cultures and as an active ingredient in commercial herbicides. At a modest dose of 1 mg/L, 2,4-D can act as a positive growth regulator and is commonly used in plant cell cultures. […] To estimate if the conjugation of CNC and 2,4-D can improve the uptake of 2,4-D, the total biomass of callus tissues cultivated on media containing 2,4-D was measured. N. tabacum calli were seeded on media containing either a standard dose of 2,4-D (1 mg/L) or a reduced dose of 2,4-D (0.4 mg/L) both conjugated and non-conjugated with CNC. […]
N. tabacum callus culture that was established by Khodakovskaya et al. was used in experiments. […] Callus growth was on the following mediums was assessed: MS medium (no 2,4-D supplement); MS medium supplemented with reduced dose of 2,4-D (0.4 mg/L); MS medium supplemented only with CNC (0.4 mg/L); MS medium supplemented with non-conjugated CNC (0.4 mg/L) and 2,4-D (0.4 mg/L); and MS medium supplemented with CNC-2,4-D conjugate (with 0.4 mg/L 2,4D). Total produced cell biomass was evaluated by measurement of total fresh weight of callus culture generated in the end of cultivation period.

[2] = system: Arabidopsis thaliana leaves; assay: Confocal microscopy uptake of CNC-DTAF by Arabidopsis leaves; format: cell-based; settings: free CNC or DTAF in doses comparable with amounts in the CNC-DTAF conjugate (negative controls), 4 hours
Protocol: To evaluate entry of synthesized CNC-dye conjugates into leaves, 12-day-old Arabidopsis thaliana seedlings were soaked with CNC-DTAF conjugate solution for 4 hours. Additionally, both protoplasts and callus cells of Nicotiana tabacum were incubated with CNC-FITC conjugate for 4 hours, as shown in FIG. 4A. All samples were imaged with confocal microscopy. The fluorescence of CNC-DTAF and CNC-FITC stained samples was digitally measured to determine the difference in signal intensity between conjugate-treated and untreated plant samples.
FIGS. 4B-F show fluorescence intensity images and measured fluorescence intensity (f) of Arabidopsis leaves incubated with water (FIG. 4B), CNC (FIG. 4C), DTAF (FIG. 4D) and CNC-DTAF conjugates (FIG. 4E), for 4 hours.
This observation indicated the ability of CNC to penetrate the cell wall and deliver dye inside the cell.
Leaves of 12-day-old A. thaliana seedlings were soaked in water (control), DTAF solution, CNC solution, or DTAF-CNC solution (1 mg/mL) for 4 hours and then intensively washed with ddH2O to fully remove residual treatments. Both freshly isolated N. tabacum protoplasts and callus cells that were cultivated for 20 days on standard Murashige and Skoog medium (MS medium) were immersed into 1 mg/mL of FITC-CNC conjugate or solution CNC and allowed to incubate for 4 hours. […]

| SMILES | cell growth compared to medium with regular dose of 2,4-D (1 mg/L) [1] | fluorescence observed in leaves [2] |
| --- | --- | --- |
| O=C(O)COc1ccc(Cl)cc1Cl [2,4-D, 2,4-dichlorophenoxyacetic acid] | suppressed cell growth |  |
| Cl.O=C1OC2(c3ccc(O)cc3Oc3cc(O)ccc32)c2ccc(Nc3nc(Cl)nc(Cl)n3)cc21 [DTAF, 5-[(4,6-Dichlorotriazin-2-yl)amino]fluorescein hydrochloride] |  | only slight autofluorescence |
